Experimental data from ChEMBL document CHEMBL5500385, “Macrocyclization strategy for improving candidate profiles in medicinal chemistry” (Eur J Med Chem, 2024).
Blank lines part the entries; values can stand above or below the molecule they belong to.

How the values were obtained:
[1] = target: T1, Muscleblind-like protein 1 (Homo sapiens, UniProt Q9NR56)
T1 sequence (Q9NR56 whole entry): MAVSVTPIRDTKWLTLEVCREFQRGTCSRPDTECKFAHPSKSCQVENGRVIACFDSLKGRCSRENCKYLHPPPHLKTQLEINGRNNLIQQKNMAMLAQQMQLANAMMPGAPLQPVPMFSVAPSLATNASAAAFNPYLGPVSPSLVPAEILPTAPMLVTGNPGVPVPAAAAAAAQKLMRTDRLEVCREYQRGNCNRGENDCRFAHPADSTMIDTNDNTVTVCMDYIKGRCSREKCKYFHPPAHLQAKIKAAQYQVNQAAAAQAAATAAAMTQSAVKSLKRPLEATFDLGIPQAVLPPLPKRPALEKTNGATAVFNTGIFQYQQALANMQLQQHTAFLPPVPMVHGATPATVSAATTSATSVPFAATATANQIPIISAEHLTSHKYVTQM
Description: Binding affinity to MBNL1 (unknown origin) (1 to 272 residues) assessed as dissociation constant

[2] = target: T2, Peptidyl-prolyl cis-trans isomerase FKBP4 (Homo sapiens, UniProt Q02790)
T2 sequence (Q02790 whole entry): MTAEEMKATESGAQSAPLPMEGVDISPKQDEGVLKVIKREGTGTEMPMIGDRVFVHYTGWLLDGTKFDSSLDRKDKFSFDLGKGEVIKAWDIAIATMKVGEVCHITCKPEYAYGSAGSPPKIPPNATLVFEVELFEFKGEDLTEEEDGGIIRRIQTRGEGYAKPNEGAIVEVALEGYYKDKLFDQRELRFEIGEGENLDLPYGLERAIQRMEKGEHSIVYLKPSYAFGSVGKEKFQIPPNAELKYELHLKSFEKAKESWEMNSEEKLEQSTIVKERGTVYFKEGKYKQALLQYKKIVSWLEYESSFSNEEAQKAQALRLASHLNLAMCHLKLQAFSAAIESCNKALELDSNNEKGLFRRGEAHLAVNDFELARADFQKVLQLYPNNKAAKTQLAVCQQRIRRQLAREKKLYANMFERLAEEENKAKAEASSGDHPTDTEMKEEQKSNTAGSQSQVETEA
Description: Binding affinity to FKBP52 (unknown origin) assessed as inhibition constant by fluorescence polarization assay

[3] = target: T2, Peptidyl-prolyl cis-trans isomerase FKBP4; remark: listed apart in the source
Description: Binding affinity to FKBP52 (unknown origin) assessed as dissociation constant by fluorescence polarization assay

in vitro = conditions: human, liver microsomes
ATP-citrate synthase [4] = target: T3, ATP-citrate synthase (Homo sapiens, UniProt P53396)
T3 sequence (P53396 whole entry): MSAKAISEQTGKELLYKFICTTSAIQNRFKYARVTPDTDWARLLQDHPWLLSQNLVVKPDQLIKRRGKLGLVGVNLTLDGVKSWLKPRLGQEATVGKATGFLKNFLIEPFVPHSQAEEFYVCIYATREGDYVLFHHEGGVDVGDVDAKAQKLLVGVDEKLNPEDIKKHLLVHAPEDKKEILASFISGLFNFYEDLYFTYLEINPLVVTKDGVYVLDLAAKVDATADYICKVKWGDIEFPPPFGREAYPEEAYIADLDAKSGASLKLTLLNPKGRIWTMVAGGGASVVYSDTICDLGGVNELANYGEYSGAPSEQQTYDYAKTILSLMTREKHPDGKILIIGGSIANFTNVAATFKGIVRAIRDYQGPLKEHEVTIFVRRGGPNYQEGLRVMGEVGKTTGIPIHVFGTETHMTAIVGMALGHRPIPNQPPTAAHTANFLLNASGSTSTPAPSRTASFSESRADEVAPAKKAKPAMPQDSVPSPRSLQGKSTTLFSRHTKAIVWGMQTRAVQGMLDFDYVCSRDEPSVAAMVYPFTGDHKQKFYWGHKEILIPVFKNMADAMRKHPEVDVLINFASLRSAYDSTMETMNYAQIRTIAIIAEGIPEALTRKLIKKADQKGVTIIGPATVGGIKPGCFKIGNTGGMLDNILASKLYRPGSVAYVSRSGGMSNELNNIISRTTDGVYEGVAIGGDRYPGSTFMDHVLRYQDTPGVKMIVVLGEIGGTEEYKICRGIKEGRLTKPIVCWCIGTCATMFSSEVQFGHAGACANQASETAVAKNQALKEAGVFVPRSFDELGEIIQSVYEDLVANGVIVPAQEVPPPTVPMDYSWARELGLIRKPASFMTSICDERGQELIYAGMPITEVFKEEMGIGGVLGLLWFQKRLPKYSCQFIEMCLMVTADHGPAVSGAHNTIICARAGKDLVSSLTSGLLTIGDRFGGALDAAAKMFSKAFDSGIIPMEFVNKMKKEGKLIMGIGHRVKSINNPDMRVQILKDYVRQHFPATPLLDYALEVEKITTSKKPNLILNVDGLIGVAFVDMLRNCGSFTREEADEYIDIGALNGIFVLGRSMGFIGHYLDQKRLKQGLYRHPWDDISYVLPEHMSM
Description: Binding affinity to ATP citrate lyase (unknown origin) assessed as dissociation constant

ATP-citrate synthase [5] = target: T3, ATP-citrate synthase; remark: listed apart in the source
Description: Inhibition of ATP citrate lyase (unknown origin)

[6] = target: Tyrosine-protein kinase JAK2 (Homo sapiens, UniProt O60674)
Sequence of Tyrosine-protein kinase JAK2 (O60674 whole entry): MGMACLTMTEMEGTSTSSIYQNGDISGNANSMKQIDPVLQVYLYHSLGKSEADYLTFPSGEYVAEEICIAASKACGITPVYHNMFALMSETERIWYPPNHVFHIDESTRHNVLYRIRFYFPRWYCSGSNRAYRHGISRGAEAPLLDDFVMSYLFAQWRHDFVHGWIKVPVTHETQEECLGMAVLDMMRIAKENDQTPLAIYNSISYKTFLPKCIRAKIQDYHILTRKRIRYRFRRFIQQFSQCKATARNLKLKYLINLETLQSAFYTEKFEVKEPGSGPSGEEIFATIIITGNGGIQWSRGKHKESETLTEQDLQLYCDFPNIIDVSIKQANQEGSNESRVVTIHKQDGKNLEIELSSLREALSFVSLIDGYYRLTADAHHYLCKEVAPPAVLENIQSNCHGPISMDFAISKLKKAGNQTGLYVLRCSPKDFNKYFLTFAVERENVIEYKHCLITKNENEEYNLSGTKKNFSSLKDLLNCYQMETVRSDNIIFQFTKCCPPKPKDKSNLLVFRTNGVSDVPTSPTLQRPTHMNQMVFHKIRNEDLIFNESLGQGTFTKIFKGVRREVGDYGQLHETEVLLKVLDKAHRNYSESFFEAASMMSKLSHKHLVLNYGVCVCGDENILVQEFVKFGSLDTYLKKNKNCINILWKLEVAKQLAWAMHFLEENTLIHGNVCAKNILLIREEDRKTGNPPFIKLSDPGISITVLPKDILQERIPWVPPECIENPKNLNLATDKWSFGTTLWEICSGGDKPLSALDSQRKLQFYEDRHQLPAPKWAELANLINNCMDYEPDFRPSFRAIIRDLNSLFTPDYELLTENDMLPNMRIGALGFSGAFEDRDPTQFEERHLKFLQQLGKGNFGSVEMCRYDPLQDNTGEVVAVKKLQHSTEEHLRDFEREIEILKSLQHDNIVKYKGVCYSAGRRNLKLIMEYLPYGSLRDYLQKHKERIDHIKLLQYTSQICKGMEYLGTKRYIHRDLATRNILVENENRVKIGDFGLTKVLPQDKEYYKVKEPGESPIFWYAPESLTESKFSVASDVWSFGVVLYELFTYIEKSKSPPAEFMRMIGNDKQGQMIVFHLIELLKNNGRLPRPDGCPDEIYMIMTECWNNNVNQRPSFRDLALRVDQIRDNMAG
Description: Inhibition of JAK2 (unknown origin)

HEL = assay: cells; conditions: Homo sapiens
Description: Antiproliferative activity against human HEL cells assessed as reduction in cell growth

SET-2 = assay: cells; conditions: Homo sapiens
Description: Antiproliferative activity against human SET2 cells assessed as reduction in cell viability

Prothrombin = Prothrombin (Homo sapiens, UniProt P00734)
Description: Binding affinity to thrombin (unknown origin) assessed as inhibition constant

Plasminogen = Plasminogen (Homo sapiens, UniProt P00747)
Sequence of Plasminogen (P00747 97-580 limits assumed): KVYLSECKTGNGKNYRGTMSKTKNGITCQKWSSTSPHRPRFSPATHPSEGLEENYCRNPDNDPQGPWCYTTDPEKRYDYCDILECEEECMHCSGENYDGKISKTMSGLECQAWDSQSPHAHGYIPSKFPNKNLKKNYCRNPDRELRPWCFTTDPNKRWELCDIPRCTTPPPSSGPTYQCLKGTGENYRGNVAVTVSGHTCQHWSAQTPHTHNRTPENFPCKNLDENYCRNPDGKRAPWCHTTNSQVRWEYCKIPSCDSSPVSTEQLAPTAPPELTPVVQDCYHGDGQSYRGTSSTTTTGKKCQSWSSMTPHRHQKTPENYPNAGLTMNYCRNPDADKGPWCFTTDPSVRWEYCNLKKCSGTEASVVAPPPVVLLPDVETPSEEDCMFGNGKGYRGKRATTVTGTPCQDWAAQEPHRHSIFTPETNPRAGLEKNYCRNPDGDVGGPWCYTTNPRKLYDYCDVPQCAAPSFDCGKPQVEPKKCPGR
Sequence of Plasminogen (P00747 581-810 limits assumed): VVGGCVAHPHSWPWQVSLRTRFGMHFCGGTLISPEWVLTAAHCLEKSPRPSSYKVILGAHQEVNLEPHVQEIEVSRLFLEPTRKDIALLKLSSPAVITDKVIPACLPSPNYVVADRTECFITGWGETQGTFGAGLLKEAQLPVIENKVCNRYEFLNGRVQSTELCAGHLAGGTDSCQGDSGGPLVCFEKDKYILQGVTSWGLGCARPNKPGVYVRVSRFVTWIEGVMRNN
Description: Binding affinity to plasmin (unknown origin) assessed as inhibition constant

[7] = target: Calcitonin gene-related peptide type 1 receptor (Homo sapiens, UniProt O60894+Q16602)
Sequence of Calcitonin gene-related peptide type 1 receptor (Q16602 whole entry, one chain of several): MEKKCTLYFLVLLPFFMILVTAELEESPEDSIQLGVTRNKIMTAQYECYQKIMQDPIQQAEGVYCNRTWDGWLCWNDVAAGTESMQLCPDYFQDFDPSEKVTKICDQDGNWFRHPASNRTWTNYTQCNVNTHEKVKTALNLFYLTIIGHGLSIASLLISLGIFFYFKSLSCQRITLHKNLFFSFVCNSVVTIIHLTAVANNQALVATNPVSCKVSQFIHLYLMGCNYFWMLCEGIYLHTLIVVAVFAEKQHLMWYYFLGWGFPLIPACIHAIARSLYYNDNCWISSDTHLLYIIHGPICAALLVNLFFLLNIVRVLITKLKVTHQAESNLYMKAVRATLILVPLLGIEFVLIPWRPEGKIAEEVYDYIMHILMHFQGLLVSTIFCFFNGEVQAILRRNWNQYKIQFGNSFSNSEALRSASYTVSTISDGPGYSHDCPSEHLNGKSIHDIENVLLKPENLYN
Description: Inhibition of CGRP (unknown origin)

Compound: COc1ccc2nc3cc(Cl)ccc3c(NCCCCNc3nc(N)nc(N)n3)c2c1
Kd [1]: 300 nM

Compound: COc1ccc(CC[C@@H](OC(=O)[C@@H]2CCCCN2C(=O)[C@H](c2cc(OC)c(OC)c(OC)c2)C2CCCCC2)c2cccc(OCC(=O)O)c2)cc1OC
Ki [2]: > 50000 nM

Compound: COC(=O)c1cc(Cl)c(O)c(S(=O)(=O)Nc2cc(-c3ccccc3)c(F)cc2F)c1
CLint scaled (in vitro): 372 mL/min/kg
Kd (ATP-citrate synthase [4]): 128 nM
IC50 (ATP-citrate synthase [5]): 44 nM

Compound: O=C1NCc2ccccc2-c2cc(c(F)cc2F)NS(=O)(=O)c2cc1cc(Cl)c2O
CLint scaled (in vitro): 3.27 mL/min/kg

Compound: N=C(N)c1ccc(CNC(=O)[C@H](Cc2cccc(C(=N)N)c2)NC(=O)[C@@H](CCCc2ccccc2)NS(=O)(=O)Cc2cccc(C(=O)O)c2)cc1
Ki (Prothrombin): 667 nM
Ki (Plasminogen): 0.81 nM

Compound: Cc1cc(C[C@@H](NC(=O)c2cnc3c(c2)C[C@@]2(C3)C(=O)Nc3ncccc32)C(=O)N(C)C)cc2cn[nH]c12
IC50 [7]: 10 nM

Further lines, results first:

Ki [2]: > 50000 nM
Compound: COc1ccc(CC[C@@H](OC(=O)[C@@H]2CCCCN2C(=O)[C@H](c2cc(OC)c(OC)c(OC)c2)C2CCCCC2)c2cccc(OCCN3CCOCC3)c2)cc1OC

Kd [3]: > 10000 nM
Compound: COc1cccc([C@@H](CCc2ccc(OC)c(OC)c2)OC(=O)[C@@H]2CCCCN2C(=O)[C@H](c2cc(OC)c(OC)c(OC)c2)C2CCCCC2)c1

IC50 [6]: 6 nM
IC50 (HEL): 3060 nM
IC50 (SET-2): 11100 nM
Compound: Cc1cnc2nc1Nc1cccc(c1)COC/C=C/COCc1cc(ccc1OCCN1CCCC1)N2
